Experimental data taken from US20050074879A1, “Antisense oligonucleotide modulation of STAT3 expression” (priority 2000, published 2005).
Oligonucleotides are written 5' to 3', each unit as a sugar letter and its base; * is a phosphorothioate linkage, no mark a phosphodiester; rarer units and linkages stand in square brackets, end groups in braces. Plain capitals give the bases only. e = 2'-O-(2-methoxyethyl) (MOE); [5mC] = 5-methylcytosine; d = 2'-deoxy (DNA)

Tested on: Human STAT3 mRNA
Assay: Inhibition of human STAT3 mRNA levels in A549 cells, 75 nM, real-time PCR (Table 13)
Format: cell-based
Details: 75 nM oligonucleotide with LIPOFECTIN, real-time PCR PPS 199, percent inhibition relative to untreated control cells, average of 2 experiments
Experimental: Oligonucleotide activity is assayed by quantitation of STAT3 mRNA levels by real-time PCR (RT-PCR) using the ABI PRISMS 7700 Sequence Detection System (PE-Applied Biosystems, Foster City, Calif.) according to manufacturer's instructions. This is a closed-tube, non-gel-based, fluorescence detection system which allows high-throughput quantitation of polymerase chain reaction (PCR) products in real-time. As opposed to standard PCR, in which amplification products are quantitated after the PCR is completed, products in RT-PCR are quantitated as they accumulate. This is accomplished by including in the PCR reaction an oligonucleotide probe that anneals specifically between the forward and reverse PCR primers, and contains two fluorescent dyes. A reporter dye (e.g., JOE or FAM, PE-Applied Biosystems, Foster City, Calif.) is attached to the 5′ end of the probe and a quencher dye (e.g., TAMRA, PE-Applied Biosystems, Foster City, Calif.) is attached to the 3′ end of the probe. When the probe and dyes are intact, reporter dye emission is quenched by the proximity of the 3′ quencher dye. During amplification, annealing of the probe to the target sequence creates a substrate that can be cleaved by the 5′-exonuclease activity of Taq polymerase. […] With each cycle, additional reporter dye molecules are cleaved from their respective probes, and the fluorescence intensity is monitored at regular (six-second) intervals by laser optics built into the ABI PRISM™ 7700 Sequence Detection System. In each assay, a series of parallel reactions containing serial dilutions of mRNA from untreated control samples generates a standard curve that is used to quantitate the percent inhibition after antisense oligonucleotide treatment of test samples.
RT-PCR reagents are obtained from PE-Applied Biosystems, Foster City, Calif. RT-PCR reactions are carried out by adding 25 l PCR cocktail (1× TAQMAN7 buffer A, 5.5 mM MgCl2, 300 µM each of DATP, dCTP and dGTP, 600 µM of dUTP, 100 nM each of forward primer, reverse primer, and probe, 20 U RNAse inhibitor, 1.25 units AMPLITAQ GOLD7, and 12.5 U MuLV reverse transcriptase) to 96 well plates containing 25 l poly(A) mRNA solution. The RT reaction is carried out by incubation for 30 minutes at 48° C. following a 10 minute incubation at 95° C. to activate the AMPLITAQ GOLD7, 40 cycles of a two-step PCR protocol are carried out: 95° C. for 15 seconds (denaturation) followed by 60° C. for 1.5 minutes (annealing/extension).
The compounds were analyzed for their effect on STAT3 mRNA levels in A549 cells. The human lung carcinoma cell line A549 was obtained from the American Type Culture Collection (ATCC) (Manassas, Va.). A549 cells were routinely cultured in DMEM basal media (Invitrogen Corporation, Carlsbad, Calif.) supplemented with 10% fetal calf serum (Invitrogen Corporation, Carlsbad, Calif.), 100 units/mL penicillin, and 100 ug/mL streptomycin (Invitrogen Corporation, Carlsbad, Calif.). Cells were routinely passaged by trypsinization and dilution when they reached 90% confluence.
When cells reached 65-75% confluency, they were treated with oligonucleotide. For cells grown in 96-well plates, wells were washed once with […] OPTI-MEM-1 reduced-serum medium (Invitrogen Corporation, Carlsbad, Calif.) and then treated with 130 µL of OPTI-MEM-1 containing […] LIPOFECTIN (Invitrogen Corporation, Carlsbad, Calif.) and 75 nM of the compounds in Table 13. Cells were treated and data were obtained in duplicate. Untreated cells served as controls. After 4-7 hours of treatment at 37° C., the medium was replaced with fresh medium. Cells were harvested 16-24 hours after oligonucleotide treatment. STAT3 mRNA levels in A549 cells were quantitated by real-time PCR as described by other methods herein.
Probes and primers to human STAT3 were designed to hybridize to a human STAT3 sequence, using published sequence information (incorporated herein as SEQ ID NO: 1). For STAT 3 the PCR primers were: • forward primer: […]

Substance	% Inhib (inhibition of human STAT 3 mRNA levels)
337266 (antisense eT*e[5mC]*eG*eT*eA*dG*dA*dT*dT*dG*dT*dG*d[5mC]*dT*dG*eA*eT*eA*eG*eA) [compound 337266]	61%
337357 (antisense eG*eG*eT*e[5mC]*eA*dA*dT*dG*dG*dT*dA*dT*dT*dG*d[5mC]*eT*eG*e[5mC]*eA*eG) [compound 337357]	71%
337254 (antisense e[5mC]*eT*eT*eG*eT*dT*d[5mC]*d[5mC]*d[5mC]*dT*d[5mC]*dG*dG*d[5mC]*dT*eG*e[5mC]*eG*eA*e[5mC]) [compound 337254]	57%
337294 (antisense e[5mC]*eT*e[5mC]*eT*eT*d[5mC]*d[5mC]*dA*dG*dT*d[5mC]*dA*dG*d[5mC]*d[5mC]*eA*eG*e[5mC]*eT*e[5mC]) [compound 337294]	75%
337256 (antisense eG*eA*eA*eG*eG*dG*d[5mC]*d[5mC]*dT*d[5mC]*dT*d[5mC]*d[5mC]*dG*dA*eG*e[5mC]*e[5mC]*eG*eA) [compound 337256]	67%
337374 (antisense eA*eG*eA*e[5mC]*eA*dT*dT*dT*d[5mC]*d[5mC]*dT*dT*dT*dT*dT*e[5mC]*eT*e[5mC]*e[5mC]*e[5mC]) [compound 337374]	67%
337300 (antisense e[5mC]*e[5mC]*eT*eT*eT*dG*dT*dA*dG*dG*dA*dA*dA*d[5mC]*dT*eT*eT*eT*eT*eG) [compound 337300]	23%
337263 (antisense eT*e[5mC]*eT*eT*eG*dA*d[5mC]*dT*d[5mC]*dT*d[5mC]*dA*dA*dT*d[5mC]*e[5mC]*eA*eA*eG*eG) [compound 337263]	79%
337251 (antisense eA*eT*eG*e[5mC]*e[5mC]*d[5mC]*dT*dT*dA*d[5mC]*dT*d[5mC]*dT*d[5mC]*d[5mC]*eG*e[5mC]*eA*eT*e[5mC]) [compound 337251]	74%
337351 (antisense e[5mC]*eT*eA*e[5mC]*e[5mC]*dT*dG*dG*dG*dT*d[5mC]*dA*dG*d[5mC]*dT*eT*e[5mC]*eA*eG*eG) [compound 337351]	74%
337280 (antisense eT*eT*eA*eT*eA*dG*dT*dT*dG*dA*dA*dA*dT*d[5mC]*dA*eA*eA*eG*eT*e[5mC]) [compound 337280]	45%
337288 (antisense eT*eG*eG*eT*e[5mC]*dA*d[5mC]*dT*dG*dA*d[5mC]*dT*dG*dG*dT*eT*eG*eT*eT*eT) [compound 337288]	84%
337347 (antisense eG*e[5mC]*e[5mC]*eT*e[5mC]*d[5mC]*dT*d[5mC]*d[5mC]*dT*dT*dG*dG*dG*dA*eA*eT*eG*eT*e[5mC]) [compound 337347]	88%
337320 (antisense e[5mC]*eT*eG*eG*e[5mC]*dA*dA*dG*dG*dA*dG*dT*dG*dG*dG*eT*e[5mC]*eT*e[5mC]*eT) [compound 337320]	74%
337336 (antisense eT*e[5mC]*eT*eT*eT*dG*d[5mC]*dT*dG*d[5mC]*dT*dT*dT*d[5mC]*dA*e[5mC]*eT*eG*eA*eA) [compound 337336]	79%
337275 (antisense eT*eT*e[5mC]*eT*eG*dT*dT*d[5mC]*dT*dA*dG*dA*dT*d[5mC]*d[5mC]*eT*eG*e[5mC]*eA*e[5mC]) [compound 337275]	82%
337308 (antisense e[5mC]*e[5mC]*e[5mC]*eA*eG*dA*dA*dT*dG*dT*dT*dA*dA*dA*dT*eT*eT*e[5mC]*e[5mC]*eG) [compound 337308]	70%

Substance	% Inhib (inhibition of human STAT 3 mRNA levels)
337340 (antisense eA*eT*eT*eT*e[5mC]*dA*dG*d[5mC]*dA*dA*dA*dT*dG*dA*d[5mC]*eA*eT*eG*eT*eT) [compound 337340]	72%
337322 (antisense eT*e[5mC]*eT*eG*eA*d[5mC]*dA*dG*dA*dT*dG*dT*dT*dG*dG*eA*eG*eA*eT*e[5mC]) [compound 337322]	69%
337321 (antisense eA*e[5mC]*e[5mC]*eA*e[5mC]*dA*dA*d[5mC]*dT*dG*dG*d[5mC]*dA*dA*dG*eG*eA*eG*eT*eG) [compound 337321]	80%
337285 (antisense e[5mC]*eA*eT*eG*eT*d[5mC]*dT*d[5mC]*d[5mC]*dT*dT*dG*dA*d[5mC]*dT*e[5mC]*eT*eT*eG*eA) [compound 337285]	78%
337364 (antisense eG*eG*eT*eG*eA*dG*dG*dG*dA*d[5mC]*dT*d[5mC]*dA*dA*dA*e[5mC]*eT*eG*e[5mC]*e[5mC]) [compound 337364]	70%
337298 (antisense eA*eG*eT*eT*eG*dA*dG*dA*dT*dT*d[5mC]*dT*dG*d[5mC]*dT*eA*eA*eT*eG*eA) [compound 337298]	74%
337353 (antisense eG*eT*e[5mC]*eG*eT*dT*dG*dG*dT*dG*dT*d[5mC]*dA*d[5mC]*dA*e[5mC]*eA*eG*eA*eT) [compound 337353]	81%
337283 (antisense eT*eG*eA*e[5mC]*eT*d[5mC]*dT*dT*dG*dA*dG*dG*dG*dT*dT*eT*eT*eA*eT*eA) [compound 337283]	71%
337327 (antisense eT*e[5mC]*e[5mC]*e[5mC]*eA*dA*dG*dA*dG*dT*dT*dT*d[5mC]*dT*d[5mC]*eT*eG*e[5mC]*e[5mC]*eA) [compound 337327]	84%
337255 (antisense eG*e[5mC]*e[5mC]*eT*eG*dT*d[5mC]*d[5mC]*dA*dG*dG*dA*dT*d[5mC]*d[5mC]*eG*eG*eT*eT*eG) [compound 337255]	75%
337359 (antisense e[5mC]*eA*eA*eT*eG*dA*dA*dT*d[5mC]*dT*dA*dA*dA*dG*dT*eG*e[5mC]*eG*eG*eG) [compound 337359]	57%
337360 (antisense eT*eG*e[5mC]*eA*eT*d[5mC]*dA*dA*dT*dG*dA*dA*dT*d[5mC]*dT*eA*eA*eA*eG*eT) [compound 337360]	71%
337369 (antisense e[5mC]*eA*eG*eA*eT*d[5mC]*dA*d[5mC]*d[5mC]*d[5mC]*dA*d[5mC]*dA*dT*dT*e[5mC]*eA*e[5mC]*eT*e[5mC]) [compound 337369]	88%
337265 (antisense e[5mC]*eG*eA*e[5mC]*eT*d[5mC]*dT*dT*dG*d[5mC]*dA*dG*dG*dA*dA*eG*e[5mC]*eG*eG*e[5mC]) [compound 337265]	92%
337372 (antisense eA*eT*e[5mC]*eA*eT*dG*dG*dG*dT*d[5mC]*dT*d[5mC]*dA*dG*dA*eG*eA*eA*e[5mC]*eA) [compound 337372]	88%
337376 (antisense eG*e[5mC]*eA*eG*eG*d[5mC]*dA*d[5mC]*d[5mC]*dA*dG*dG*dA*dG*dG*e[5mC]*eA*e[5mC]*eT*eT) [compound 337376]	83%
337323 (antisense eT*eG*eG*e[5mC]*eA*dT*d[5mC]*dT*dG*dA*d[5mC]*dA*dG*dA*dT*eG*eT*eT*eG*eG) [compound 337323]	79%
